Test system: 485176-168-R4-J1-PDC spheroids with HUVEC/MSC, viability
Assay: Anticancer human tumor 485176-168-R4-J1-PDC patient-derived pancreatic adenocarcinoma cell line growth inhibition [GQUAD]
Conditions: for IC50: curve of first compound; for viability, T/C: stronger effect = lower value
Outline: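 Tumor cells were grown as complex spheroids with HUVEC endothelial cells and mesenchymal stem cells as stroma. G-quadruplex stabilizers were combined with targeted agents over half-log dilutions from near the clinical Cmax, or from 10 microM.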

[1] = second compound 0.0316 µM, first compound 0.0316 µM
[2] = second compound 0.0316 µM, first compound 0.1 µM
[3] = second compound 0.0316 µM, first compound 0.316 µM
[4] = second compound 0.0316 µM, first compound 1 µM
[5] = second compound 0.0316 µM, first compound 3.16 µM
[6] = second compound 0.0316 µM, first compound 10 µM
[7] = second compound 0.1 µM, first compound 0.0316 µM
[8] = second compound 0.1 µM, first compound 0.1 µM
[9] = second compound 0.1 µM, first compound 0.316 µM
[10] = second compound 0.1 µM, first compound 1 µM
[11] = second compound 0.1 µM, first compound 3.16 µM
[12] = second compound 0.1 µM, first compound 10 µM
[13] = second compound 0.316 µM, first compound 0.0316 µM
[14] = second compound 0.316 µM, first compound 0.1 µM
[15] = second compound 0.316 µM, first compound 0.316 µM
[16] = second compound 0.316 µM, first compound 1 µM
[17] = second compound 0.316 µM, first compound 3.16 µM
[18] = second compound 0.316 µM, first compound 10 µM
[19] = second compound 1 µM, first compound 0.0316 µM
[20] = second compound 1 µM, first compound 0.1 µM
[21] = second compound 1 µM, first compound 0.316 µM
[22] = second compound 1 µM, first compound 1 µM
[23] = second compound 1 µM, first compound 3.16 µM
[24] = second compound 1 µM, first compound 10 µM
[25] = second compound 3.16 µM, first compound 0.0316 µM
[26] = second compound 3.16 µM, first compound 0.1 µM
[27] = second compound 3.16 µM, first compound 0.316 µM
[28] = second compound 3.16 µM, first compound 1 µM
[29] = second compound 3.16 µM, first compound 3.16 µM
[30] = second compound 3.16 µM, first compound 10 µM
[31] = second compound 10 µM, first compound 0.0316 µM
[32] = second compound 10 µM, first compound 0.1 µM
[33] = second compound 10 µM, first compound 0.316 µM
[34] = second compound 10 µM, first compound 1 µM
[35] = second compound 10 µM, first compound 3.16 µM
[36] = second compound 10 µM, first compound 10 µM
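Note: spheroids exposed to compounds for seven days before readout.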
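Throughout, for viability, T/C: percent viability relative to DMSO vehicle control wells as 100%.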

Question: For `Nc1ccn(C2OC(CO)C(O)C2(F)F)c(=O)n1` (centres undefined) + Cc1[nH]c2ccc(F)cc2c1-c1nc2c3cccnc3c3ncccc3c2[nH]1, which IC50 (second compound 0.0316 µM) is on record?
Answer: 50.5 nM

Question: What about the IC50 (second compound 0.1 µM) of the same compound?
Answer: 40 nM

Question: What about the IC50 (second compound 0.316 µM) of the same compound?
Answer: 42.1 nM

Question: What about the IC50 (second compound 1 µM) of the same compound?
Answer: 54.1 nM

Question: And the IC50 (second compound 3.16 µM)?
Answer: 54.4 nM

Question: What about the IC50 (second compound 10 µM) of the same compound?
Answer: 57.4 nM

Question: And the viability, T/C [1]?
Answer: 71.8%

Question: And the viability, T/C [2]?
Answer: 18.2%

Question: And the viability, T/C [3]?
Answer: 10.3%

Question: What about the viability, T/C [4] of the same compound?
Answer: 9.1%

Question: And the viability, T/C [5]?
Answer: 11.2%

Question: What about the viability, T/C [6] of the same compound?
Answer: 10.4%

Question: What about the viability, T/C [7] of the same compound?
Answer: 56.6%

Question: What about the viability, T/C [8] of the same compound?
Answer: 24.9%

Question: And the viability, T/C [9]?
Answer: 9.79%

Question: And the viability, T/C [10]?
Answer: 9.89%

Question: What about the viability, T/C [11] of the same compound?
Answer: 11.8%

Question: And the viability, T/C [12]?
Answer: 9.87%

Question: And the viability, T/C [13]?
Answer: 58%

Question: What about the viability, T/C [14] of the same compound?
Answer: 25.7%

Question: And the viability, T/C [15]?
Answer: 12%

Question: And the viability, T/C [16]?
Answer: 10.1%

Question: What about the viability, T/C [17] of the same compound?
Answer: 9.86%

Question: What about the viability, T/C [18] of the same compound?
Answer: 11.9%

Question: What about the viability, T/C [19] of the same compound?
Answer: 71.3%

Question: What about the viability, T/C [20] of the same compound?
Answer: 25.6%

Question: What about the viability, T/C [21] of the same compound?
Answer: 9.77%

Question: And the viability, T/C [22]?
Answer: 10.7%

Question: And the viability, T/C [23]?
Answer: 12.2%

Question: What about the viability, T/C [24] of the same compound?
Answer: 12.2%

Question: What about the viability, T/C [25] of the same compound?
Answer: 69.7%

Question: What about the viability, T/C [26] of the same compound?
Answer: 27.8%

Question: What about the viability, T/C [27] of the same compound?
Answer: 10.8%

Question: What about the viability, T/C [28] of the same compound?
Answer: 12.1%

Question: And the viability, T/C [29]?
Answer: 11.2%

Question: What about the viability, T/C [30] of the same compound?
Answer: 13.9%

Question: What about the viability, T/C [31] of the same compound?
Answer: 71.8%

Question: What about the viability, T/C [32] of the same compound?
Answer: 29.8%

Question: What about the viability, T/C [33] of the same compound?
Answer: 10.8%

Question: And the viability, T/C [34]?
Answer: 10.4%

Question: And the viability, T/C [35]?
Answer: 10.2%

Question: What about the viability, T/C [36] of the same compound?
Answer: 10.8%

Question: What does the source list for `Cc1cccc(N(C)C(=O)C2C(O)CCN2c2nc(C)cc(C(F)(F)F)c2C#N)c1` (centres undefined) + Cc1[nH]c2ccc(F)cc2c1-c1nc2c3cccnc3c3ncccc3c2[nH]1?
Answer: IC50 (second compound 0.0316 µM): > 10000 nM; IC50 (second compound 0.1 µM): > 10000 nM; IC50 (second compound 0.316 µM): > 10000 nM; IC50 (second compound 1 µM): > 10000 nM; IC50 (second compound 3.16 µM): > 10000 nM; IC50 (second compound 10 µM): > 10000 nM; viability, T/C [1]: 102%; viability, T/C [2]: 95.1%; viability, T/C [3]: 99.2%; viability, T/C [4]: 89%; viability, T/C [5]: 94.1%; viability, T/C [6]: 99.2%; viability, T/C [7]: 85.9%; viability, T/C [8]: 95.4%; viability, T/C [9]: 93.1%; viability, T/C [10]: 99%; viability, T/C [11]: 109%; viability, T/C [12]: 114%; viability, T/C [13]: 93.1%; viability, T/C [14]: 108%; viability, T/C [15]: 103%; viability, T/C [16]: 92.2%; viability, T/C [17]: 93.7%; viability, T/C [18]: 96.7%; viability, T/C [19]: 87%; viability, T/C [20]: 100%; viability, T/C [21]: 84.6%; viability, T/C [22]: 85.3%; viability, T/C [23]: 99.8%; viability, T/C [24]: 94.1%; viability, T/C [25]: 95.5%; viability, T/C [26]: 97.1%; viability, T/C [27]: 84.5%; viability, T/C [28]: 89.2%; viability, T/C [29]: 95.1%; viability, T/C [30]: 92.1%; viability, T/C [31]: 80.3%; viability, T/C [32]: 92%; viability, T/C [33]: 80.1%; viability, T/C [34]: 90%; viability, T/C [35]: 78.2%; viability, T/C [36]: 99.1%

Source: PubChem BioAssay AID2060509 (Molecular Pharmacology Branch, DTP, NCI, 2025)
